Paper PMC8145110, “Design, Synthesis, and Antibacterial Screening of Some Novel Heteroaryl-Based Ciprofloxacin Derivatives as DNA Gyrase and Topoisomerase IV Inhibitors” (Pharmaceuticals, 2021)
Values after ≈ are worked out from the molar mass of the structure shown.

Experiments:
[1] = tested on: Escherichia coli (ATCC 11775); assay: Kirby-Bauer disc diffusion, E. coli; format: cell-based; settings: % of ciprofloxacin
Experimental: (§1) An updated Kirby-Bauer disc diffusion method was used to assess the antimicrobial activity of the tested samples [32, 33, 34, 35]. Using ciprofloxacin as a reference drug, synthetic compounds 1–21 were tested in vitro for antibacterial activity against S. aureus and B. subtilis as Gram-positive strains and E. coli and P. aeruginosa as Gram-negative strains. […]. […].
(§2) The cultures used were collected from the Cairo University’s Microanalytical Centre, Faculty of Science. An updated Kirby-Bauer disc diffusion method was applied for antimicrobial activities of the tests 1–21 compounds [32, 33, 34, 35]. See Appendix A.
(§3) The cultures used were collected from the Cairo University’s Microanalytical Centre, Faculty of Science. An updated Kirby-Bauer disc diffusion method was applied for the antimicrobial activities of the tests for compounds 1–21 [28]. Shortly after, 10 mL of fresh medium was grown to 100 μL bacteria/food until a count of 10^8 cells/mL or 10^5 cells/mL was achieved. One hundred μL microbial suspension was spread over agar plates that suited the broth in which it was held. The selected colonies of each organism that may play a pathogenic function should be from the primary agar plates and tested by the disc diffusion method for susceptibility. Plates inoculated with filamentous fungi as Aspergillus flavus were incubated at 25 °C for 48 h; Gram positive bacteria as Staphylococcus aureus (ATCC 12600, Microanalytical center, Cairo, Egypt), Bacillus subtilis (ATCC 6051); Gram negative bacteria as Escherichia coli (ATCC 11775), Pseudomonas aeuroginosa (ATCC 10145) were incubated at 35–37 °C for 24–48 h and yeast as Candida albicans (ATCC 7102) was incubated at 30 °C for 24–48 h and, then the diameters of the inhibition zones were measured in millimeters. […] For the disc diffusion, the zone diameters were measured with slipping calipers of the National Committee for Clinical Laboratory Standards, and the results are given in Table 1. […]

E. coli = assay: MIC, two-fold serial dilution, E. coli; format: cell-based; settings: Escherichia coli; read-out: Minimum Inhibitory Concentration (MIC), E. coli
Experimental: (§4) Table 2, using the reference drug ciprofloxacin, was presented with the MICs (minimal inhibitory concentrations) of these compounds against tested bacteria. […] The nature of aromatic substitution in the oxadiazole moiety tends to be correlated with higher antibacterial effects and the activity increased with (Ar) in the order of 2-pyridyl ≥ 3-pyridyl > 4-pyridyl > 2-Cl-Ph > 2-naphthyl.
(§5) On 96-well microtiter plates and […] of fresh bacterial culture of a single McFarland unit overnight, a double serial dilution of each compound […] in sterile standard saline was prepared for every single source well. Ciprofloxacin antibiotic (5 mg/mL^−1) and normal saline were included as standard references in each assay (see Appendix A).
(§6) In 96-well microtiter plates and […] of fresh bacterial culture of a single McFarland unit overnight, a double serial dilution of each compound […] in sterile standard saline was prepared for every single source well. Ciprofloxacin antibiotic (5 mg/mL^−1) and normal saline were included as standard reference in each assay. The plates were incubated at 37 °C overnight. As an indicator of bacterial growth, […] of p-iodonitrotetrazolium violet (INT) was added to each well and incubated at 37 °C for 30 min. […] The colorless tetrazolidium salt acts as an electron accepter and is reduced to a red colored formazan product by biological activity organisms. Where bacterial growth was inhibited, the solution in the well remained clear after incubation with INT.

[2] = Cell viability assay (MTT); format: cell-based; set-up: dose or concentration left out as unconfirmed; settings: human, MCF-10A mammary gland epithelial cells, four days
Experimental: A human mammary gland epithelial cell line (MCF-10A) was used to conduct a cell viability assay. Compounds 2–6 were incubated with MCF-10A cells for four days, and the viability of the cells was determined using the 3-(4,5-dimethylthiazol-2-yl)-2,5-diphenyltetrazolium bromide (MTT) assay. All compounds had no cytotoxic effects, and the viability of the cells was greater than 85% for most of the compounds examined […], as shown in Table 4.
MTT Assay was performed to investigate the effect of compounds 2–6 on the viability of mammary epithelial cells (MCF-10A) (see Appendix A).

B. subtilis = assay: MIC, two-fold serial dilution, B. subtilis; format: cell-based; settings: Bacillus subtilis; read-out: Minimum Inhibitory Concentration (MIC), B. subtilis
Experimental: as §4, §5, §6

P. aeruginosa = assay: MIC, two-fold serial dilution, P. aeruginosa; format: cell-based; settings: Pseudomonas aeruginosa; read-out: Minimum Inhibitory Concentration (MIC), P. aeruginosa
Experimental: as §4, §5, §6

[3] = tested on: Staphylococcus aureus (ATCC 12600); assay: Kirby-Bauer disc diffusion, S. aureus; format: cell-based; settings: % of ciprofloxacin
Experimental: as §1, §2
as §3, with “millimeters. Standard discs of ciprofloxacin (antibacterial agent), fluconazole (antifungal agent) served as positive controls for antimicrobial activity, but filter discs impregnated with 10 µL of solvent (distilled water, chloroform, DMSO) were used as a negative control. Blank paper disks (Schleicher and Schuell, Cytiva, Spain) with a diameter of 8.0 mm were impregnated with 10 µL of tested concentration of the stock solutions. When a filter paper disc impregnated with a tested chemical is placed on agar, the chemical will diffuse from the disc into the agar. This diffusion will place the chemical in the agar only around the disc. The solubility of the chemical and its molecular size will determine the size of the area of chemical infiltration around the disc.” for “millimeters.”

E. coli DNA gyrase = target: T1, E. coli DNA gyrase (Escherichia coli, UniProt P0AES4+P0AES6); assay: E. coli DNA gyrase assay; format: biochemical
T1 construct: purchased Inspiralis
T1 sequence (P0AES4 whole entry, one chain of several): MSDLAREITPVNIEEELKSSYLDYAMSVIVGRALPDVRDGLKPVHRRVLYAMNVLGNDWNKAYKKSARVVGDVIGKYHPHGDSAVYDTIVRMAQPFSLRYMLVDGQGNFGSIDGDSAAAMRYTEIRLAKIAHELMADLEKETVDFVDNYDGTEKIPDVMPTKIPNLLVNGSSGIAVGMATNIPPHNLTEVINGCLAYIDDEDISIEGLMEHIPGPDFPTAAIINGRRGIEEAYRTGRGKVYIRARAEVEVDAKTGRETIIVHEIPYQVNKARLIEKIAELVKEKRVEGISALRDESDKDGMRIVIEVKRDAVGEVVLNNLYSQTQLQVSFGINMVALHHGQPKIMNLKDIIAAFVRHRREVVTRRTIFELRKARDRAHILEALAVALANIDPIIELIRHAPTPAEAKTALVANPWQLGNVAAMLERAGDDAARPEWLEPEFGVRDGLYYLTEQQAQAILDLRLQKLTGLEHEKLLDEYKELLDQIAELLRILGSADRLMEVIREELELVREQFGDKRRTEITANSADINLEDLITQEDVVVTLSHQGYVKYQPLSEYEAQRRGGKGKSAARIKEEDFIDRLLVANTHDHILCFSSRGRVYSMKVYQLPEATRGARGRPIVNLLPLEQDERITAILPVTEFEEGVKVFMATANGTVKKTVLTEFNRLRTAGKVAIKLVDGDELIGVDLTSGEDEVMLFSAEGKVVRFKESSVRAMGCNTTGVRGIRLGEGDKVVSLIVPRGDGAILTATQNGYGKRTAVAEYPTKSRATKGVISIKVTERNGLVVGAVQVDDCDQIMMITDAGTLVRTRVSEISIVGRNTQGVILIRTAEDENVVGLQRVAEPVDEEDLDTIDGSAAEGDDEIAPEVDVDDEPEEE
Experimental: (§7) IC50 assay determination was carried out in accordance with the procedures previously stated (see Appendix A).
(§8) Inhibitory activities were determined in an assay from Inspiralis on streptavidin-coated 96-well microtiter plates from Thermo scientific Pierce. […] After washing off the unbound oligonucleotide, the enzyme test was performed. […] After that, the TF buffer (50 mM NaOAc with pH 5.0, 50 mM NaCl and 50 mM MgCl2) was added to terminate the enzymatic reaction. After additional incubation for 30 min at rt, during which biotin-oligonucleotide-plasmid triplex was 19 formed, the unbound plasmid was washed off using TF buffer and SybrGOLD in T10 buffer (10 mM Tris HCl with pH 8.0 and 1 mM EDTA) was added. […] Initial screening was done at 100 or 10 μM concentration of inhibitors. […] GraphPad Prism software was used to calculate the IC50 values. The result is given as the average value of three independent measurements. […] Determination of inhibitory activities on E. coli and S. aureus Topoisomerase IV IC50 values were determined in an assay from Inspiralis on streptavidin-coated 96-well microtiter plates from Thermo scientific Pierce. […] After washing off the unbound oligonucleotide, the enzyme test was performed. The reaction volume of 30 μL in buffer (40 mM HEPES KOH with pH 7.6, 100 mM potassium glutamate, 10 mM magnesium acetate, 10 mM DTT, 1 mM ATP, 0.05 mg/mL albumin) contained 1.5 U of topoisomerase IV from E. coli or S. aureus, 0.75 μg of pNO1 supercoiled plasmid, and 3 μL solution of the inhibitor in DMSO (10%) and Tween 20 (0.008%). […] After additional incubation for 30 min at rt, during which triplex (biotin-oligonucleotide-plasmid) was formed, the unbound plasmid was washed off using TF buffer and SybrGOLD in T10 buffer (10 mM Tris HCl with pH 8.0 and 1 mM EDTA) was added. […] Initial screening was done at 100 or 10 μM concentration of inhibitors. […] GraphPad Prism software was used to calculate the IC50 values. The result is given as the average value of three independent measurements.

S. aureus = assay: MIC, two-fold serial dilution, S. aureus; format: cell-based, Staphylococcus aureus; settings: for MIC: Staphylococcus aureus, read-out: Minimum Inhibitory Concentration (MIC), S. aureus
Experimental: as §4, §5, §6

E. coli topoisomerase IV = target: T2, E. coli topoisomerase IV (Escherichia coli, UniProt P0AFI2+P20083); assay: E. coli topoisomerase IV assay; format: biochemical
T2 construct: purchased Inspiralis
T2 sequence (P0AFI2 whole entry): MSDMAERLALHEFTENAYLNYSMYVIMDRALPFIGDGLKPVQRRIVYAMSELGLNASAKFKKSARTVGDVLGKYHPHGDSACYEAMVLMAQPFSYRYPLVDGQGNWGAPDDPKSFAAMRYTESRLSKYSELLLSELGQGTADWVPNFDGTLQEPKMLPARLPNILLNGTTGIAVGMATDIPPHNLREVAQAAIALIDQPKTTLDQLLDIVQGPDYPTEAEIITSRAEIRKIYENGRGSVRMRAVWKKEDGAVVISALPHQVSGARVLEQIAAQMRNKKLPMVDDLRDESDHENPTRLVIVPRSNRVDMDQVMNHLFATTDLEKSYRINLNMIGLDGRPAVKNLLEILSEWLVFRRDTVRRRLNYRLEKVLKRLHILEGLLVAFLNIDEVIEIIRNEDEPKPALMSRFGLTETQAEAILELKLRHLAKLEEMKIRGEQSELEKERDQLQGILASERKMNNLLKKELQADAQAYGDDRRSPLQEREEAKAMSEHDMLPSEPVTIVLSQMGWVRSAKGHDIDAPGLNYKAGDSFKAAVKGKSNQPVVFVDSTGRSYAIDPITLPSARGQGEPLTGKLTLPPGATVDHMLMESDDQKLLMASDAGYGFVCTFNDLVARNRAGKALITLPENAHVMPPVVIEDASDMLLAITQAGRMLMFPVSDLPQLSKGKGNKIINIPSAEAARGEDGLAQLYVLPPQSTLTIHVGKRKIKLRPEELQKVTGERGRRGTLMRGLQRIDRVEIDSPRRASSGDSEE
T2 sequence (P20083 whole entry): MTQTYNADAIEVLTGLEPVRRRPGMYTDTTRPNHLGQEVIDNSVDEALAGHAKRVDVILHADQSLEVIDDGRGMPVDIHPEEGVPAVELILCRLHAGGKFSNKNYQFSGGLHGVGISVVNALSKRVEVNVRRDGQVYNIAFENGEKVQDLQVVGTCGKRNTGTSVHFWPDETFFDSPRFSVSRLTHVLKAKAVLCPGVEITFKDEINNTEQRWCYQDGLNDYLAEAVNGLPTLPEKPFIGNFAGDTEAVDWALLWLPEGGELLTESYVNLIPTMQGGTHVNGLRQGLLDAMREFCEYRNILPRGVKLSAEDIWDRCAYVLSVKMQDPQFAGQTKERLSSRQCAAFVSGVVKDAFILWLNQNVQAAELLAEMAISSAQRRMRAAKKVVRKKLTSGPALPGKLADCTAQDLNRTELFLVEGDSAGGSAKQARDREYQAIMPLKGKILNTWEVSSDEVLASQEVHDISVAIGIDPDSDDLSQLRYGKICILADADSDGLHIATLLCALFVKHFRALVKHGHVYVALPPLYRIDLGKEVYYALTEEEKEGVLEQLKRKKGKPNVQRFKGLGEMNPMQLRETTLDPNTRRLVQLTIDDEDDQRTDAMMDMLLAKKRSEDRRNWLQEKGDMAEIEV
Experimental: as §7, §8

SMILES | melting point [°C] | antibacterial activity relative to ciprofloxacin, E. coli [1] | MIC (E. coli) [µg/mL] | viability at 4 days [2] [%] | MIC (B. subtilis) [µg/mL] | MIC (P. aeruginosa) [µg/mL] | antibacterial activity relative to ciprofloxacin, S. aureus [3] | IC50 (E. coli DNA gyrase) [nM] | MIC (S. aureus) [µg/mL] | IC50 (E. coli topoisomerase IV) [nM] | remaining activity at 1 µM (E. coli DNA gyrase; read-out: RA (%), residual activity of E. coli DNA Gyrase) [%] | MIC, S. aureus (S. aureus) [µg/mL] | remaining activity at 1 µM (E. coli topoisomerase IV; read-out: RA (%), residual activity of E. coli Topo IV) [%]
O=C(O)c1cn(C2CC2)c2cc(N3CCN(Cn4nc(-c5ccccc5)n(-c5ccccc5)c4=S)CC3)c(F)cc2c1=O [Compound 7, 1-Cyclopropyl-7-[4-(3,4-diphenyl-5-thioxo-4,5-dihydro-[1,2,4]triazol-1-ylmethyl)-piperazin-1-yl]-6-fluoro-4-oxo-1,4-dihydro-quinoline-3-carboxylic acid] | 288 |  |  |  |  |  |  |  |  |  |  |  | 
O=C(O)c1cn(C2CC2)c2cc(N3CCN(Cn4nc(-c5ccccn5)oc4=S)CC3)c(F)cc2c1=O [Compound 4, 1-Cyclopropyl-6-fluoro-4-oxo-7-[4-(5-pyridin-2-yl-2-thioxo-[1,3,4]oxadiazol-3-yl-methyl)-piperazin-1-yl]-1,4-dihydro-quinoline-3-carboxylic acid] | 218 | equipotent | 0.062 (≈ 0.119 µM) | 89 | 0.125 (≈ 0.239 µM) | 0.062 (≈ 0.119 µM) | equipotent | 42 ± 7 | 0.035 (≈ 0.067 µM) | 1470 ± 200 |  |  | 
O=C(O)c1cn(C2CC2)c2cc(N3CCN(Cn4nc(-c5ccc6ccccc6c5)n(-c5ccccc5)c4=S)CC3)c(F)cc2c1=O [Compound 9, 1-Cyclopropyl-6-fluoro-7-[4-(3-naphthalen-2-yl-4-phenyl-5-thioxo-4,5-dihydro-[1,2,4]triazol-1-ylmethyl)-piperazin-1-yl]-4-oxo-1,4-dihydro-quinoline-3-carboxylic acid] | 262 |  |  |  |  |  |  |  |  |  |  |  | 
O=C(O)c1cn(C2CC2)c2cc(N3CCN(Cn4nc(-c5cccnc5)oc4=S)CC3)c(F)cc2c1=O [Compound 5, 1-Cyclopropyl-6-fluoro-4-oxo-7-[4-(5-pyridin-3-yl-2-thioxo-[1,3,4]oxadiazol-3-yl-methyl)-piperazin-1-yl]-1,4-dihydro-quinoline-3-carboxylic acid] | 230 | equipotent | 0.062 (≈ 0.119 µM) | 91 | 0.125 (≈ 0.239 µM) | 0.125 (≈ 0.239 µM) | equipotent | 92 ± 9 | 0.035 (≈ 0.067 µM) | 6800 ± 200 |  |  | 
O=C(O)c1cn(C2CC2)c2cc(N3CCN(Cn4nc(-c5ccccc5Cl)oc4=S)CC3)c(F)cc2c1=O [Compound 2, 7-{4-[5-(2-Chloro-phenyl)-2-thioxo-[1,3,4]oxadiazol-3-ylmethyl]-piperazin-1-yl}-1-cyclopropyl-6-fluoro-4-oxo-1,4-dihydro-quinoline-3-carboxylic acid] | 226 |  | 0.125 (≈ 0.225 µM) | 87 | 0.125 (≈ 0.225 µM) | 0.125 (≈ 0.225 µM) |  |  | 0.162 (≈ 0.291 µM) |  | 57 | 0.062 (≈ 0.112 µM) | 89
